Data taken from US20250102494A1, “COMPOSITION FOR PREDICTING OXALIPLATIN DRUG EFFICACY, AND USE THEREOF” (SAMSUNG LIFE PUBLIC WELFARE FOUNDATION, priority 2022, published 2025).

Key:
Format in all cases: cell-based
[1] = tested on: LoVo cells; test: ATPlite cell viability after oxaliplatin, LoVo cells in organoid culture media
Experimental: (§1) Advanced DMEM/F12+++ (hereinafter referred to as “Ad/DF+++”) was used to produce colorectal cancer organoids. Ad/DF+++ was refrigerated at 4° C. until use, and was used in a cold state during cell washing. Ad/DF+++ medium containing the reagents shown in Table 1 below along with Ad/DF 1× (Gibco) was prepared.
(§2) After preparing the Ad/DF+++ medium containing the above reagents, an appropriate amount of Matrigel (Corning #356231) was added so that the ratio between Matrigel and cells suspended in the Ad/DF+++ medium was 7:3. Then, the cells were plated on low attachment well plates at an appropriate density. The density and the type and number of well plates were determined according to the characteristics of each cell type. […]
(§3) If the organoids were expanded as needed for the experiment, the medium was carefully removed, taking care not to touch the Matrigel. […] After suspending the pellet in Ad/DF+++, the cells were counted and diluted with medium according to the required number of cells. […]
(§4) Four hours after the medium change, the cells were treated with oxaliplatin, 5-FU, Irinotecan, and folinic acid. Five days after drug treatment, intracellular ATP expression was determined using the ATPlite assay kit (PerkinElmer), and the data were expressed in terms of cell viability, IC50, and AUC. […]

[2] = tested on: RKO cells; test: ATPlite cell viability after oxaliplatin, RKO cells in organoid culture media
Experimental: as §1
(§5) After preparing the Ad/DF+++ medium containing the above reagents, an appropriate amount of Matrigel (Corning #356231) was added so that the ratio between Matrigel and cells suspended in the Ad/DF+++ medium was 7:3. Then, the cells were plated on low attachment well plates at an appropriate density. The density and the type and number of well plates were determined according to the characteristics of each cell type. The medium was prepared according to the composition shown in Table 2 below, and the cells were cultured (expanded) until the required level was reached while the medium was replaced every 3 to 4 days.
(§6) If the organoids were expanded as needed for the experiment, the medium was carefully removed, taking care not to touch the Matrigel. The cells were separated from the Matrigel by pipetting about 20 times with 1 ml of cold Ad/DF+++. The cells in 1 to 4 wells per 6-well plate were collected in one 50 ml tube. If cells are collected from more than 4 wells into one tube, the Metrigel may not be washed properly. For this reason, the cells were placed in several tubes. […] After suspending the pellet in Ad/DF+++, the cells were counted and diluted with medium according to the required number of cells. […]
(§7) Four hours after the medium change, the cells were treated with oxaliplatin, 5-FU, Irinotecan, and folinic acid. Five days after drug treatment, intracellular ATP expression was determined using the ATPlite assay kit (PerkinElmer), and the data were expressed in terms of cell viability, IC50, and AUC.
(§8) As the standard for confirming that cells are sensitive to the drug, the response of the cells to the drug was assumed to be 100%, and the luminescence value of surviving cells after drug treatment was analyzed and compared with the quantified drug response value. […]

[3] = tested on: LS147T cells; test: ATPlite cell viability after oxaliplatin, LS147T cells in organoid culture media
Experimental: as §1, §5, §6, §7, §8

[4] = tested on: HT29 cells; test: ATPlite cell viability after oxaliplatin, HT29 cells in organoid culture media
Experimental: as §1, §2, §3, §4

[5] = tested on: HCT15 cells; test: ATPlite cell viability after oxaliplatin, HCT15 cells in organoid culture media
Experimental: as §1, §2, §3, §4

[6] = tested on: SW620 cells; test: ATPlite cell viability after oxaliplatin, SW620 cells in organoid culture media
Experimental: as §1, §5
If the organoids were expanded as needed for the experiment, the medium was carefully removed, taking care not to touch the Matrigel. The cells were separated from the Matrigel by pipetting about 20 times with 1 ml of cold Ad/DF+++. The cells in 1 to 4 wells per 6-well plate were collected in one 50 ml tube. If cells are collected from more than 4 wells into one tube, the Metrigel may not be washed properly. For this reason, the cells were placed in several tubes. Thereafter, Ad/DF+++ was poured to 20 to 50 ml of each tube, followed by centrifugation at 400 g for 3 minutes at 4° C. The cells were dissociated with 1 to 2 mL of TrypLE™ Express Enzyme (Gibco, 1264-013), transferred to low-attachment 24 well plates, and then treated with 10 μM of Y-27632. Next, the cells were cultured in a CO2 incubator for 5 minutes at 37° C. After pipetting about 20 times, whether the cells would be dissociated into single cells was checked by microscopic observation. If the cells were not dissociated into single cells, the culture under CO2 and pipetting processes were repeated. […] After suspending the pellet in Ad/DF+++, the cells were counted and diluted with medium according to the required number of cells. […]
as §7, §8

[7] = tested on: 166T colorectal cancer patient-derived organoids; test: Cell viability after oxaliplatin, 2D and 3D culture of patient-derived organoids; conditions: for cell viability, Ex1 medium compared with control (CRC): FIGS. 26 and 27
Experimental: as §7
In order to evaluate the difference between 2D culture and 3D culture performed using the above medium compositions, 166T CoLvM patient-derived organoids were cultured under 2D culture conditions and 3D culture conditions.

## O=C1[O][Pt]2([NH][C@@H]3CCCC[C@H]3[NH]2)[O]C1=O [oxaliplatin]
[1]; LoVo organoids, log [oxaliplatin] values approaching 2, FIG. 22
  cell viability: ≥ 50%
[1]; LoVo, FIG. 21
  AUC values of Ex2 to Ex4 compared with Ex1: higher than that of Ex1
[2]; FIG. 6
  AUC value, Ex1 to Ex4 compared: the lowest in the organoid culture conditions of Ex2
[2]; FIG. 7
  IC50 value, Ex2 compared with Ex1: significantly lower in Ex2 than in Ex1
[2]; MEM control, Ex1, Ex2, FIG. 8
  cell viability versus oxaliplatin concentration: fastest decrease in cell viability, followed by Ex2
[3]; FIG. 12
  AUC value, Ex2 compared with other organoid culture conditions: lower in the organoid culture conditions of Ex2
  AUC value, Ex3 and Ex4 compared with Ex1: no difference in AUC values from Ex1
[3]; FIG. 13
  IC50 value, Ex2 compared with Ex1: higher in Ex2 than in Ex1
[4]; HT29, FIG. 15
  AUC value, Ex1 to Ex4 compared: Ex1 to Ex3 showed similar AUC values, but Ex4 showed slightly lower AUC values than Ex1 to Ex3
[4]; HT29 cell line and Ex1 to Ex4, FIG. 16
  cell viability versus oxaliplatin concentration: did not decrease under all the culture conditions
[5]; Ex2 and Ex4, log [oxaliplatin] value 2, FIG. 18
  cell viability: ≥ 50%
[5]; FIG. 17
  AUC value, Ex1 to Ex4 compared: decreased under the organoid culture conditions of Ex2
[6]; SW620, FIG. 9
  AUC value, Ex2 compared with other organoid culture conditions: lower in the organoid culture conditions of Ex2
  AUC value, Ex3 and Ex4 compared with Ex1: no significant difference in AUC values from Ex1
[6]; SW620, FIG. 10
  IC50 value, Ex2 compared with Ex1: lower in Ex2 than in Ex1
[6]; SW620 in Ex2, log [oxaliplatin] value 1, FIG. 11
  cell viability: 50%
[7]; 2D and 3D culture
  cell viability, Ex2 medium compared with control: cell viabilities similar to those of the control group
[7]; 2D culture
  cell viability, Ex1 medium compared with control (CRC): cell viability similar to that of the control (CRC) cell line
[7]; 3D culture
  cell viability, Ex1 medium compared with control (CRC): higher cell viability than that of the control (CRC) cell line
